Earlier results in patent US20140303119A1, “METHODS, APPARATUS, AND COMPOUNDS FOR THE TREATMENT OF CENTRAL RETINAL VEIN OCCLUSION AND OTHER CONDITIONS” (DiLorenzo Biomedical, LLC, priority 2013, published 2014).

Tests used:
[1] = test system: thrombosis of the central retinal vein; conditions: given intravenously, small randomized clinical study
[2] = test system: central retinal vein occlusion
retinal vein occlusion = conditions: patients with retinal vein occlusion, troxerutin versus placebo
CRVO = conditions: review statement, evidence limited (level B, III)
patients with CRVO = conditions: 96 patients with CRVO

In the case of CCCCC[C@H](O)/C=C/[C@@H]1[C@H]2C/C(=C/CCCC(=O)O)O[C@H]2C[C@H]1O [Prostacyclin], the “progression to neovascularization versus placebo” value [1] is listed as “no significant difference” and the “visual acuity versus placebo” value [1] is listed as “no significant difference”.
For Streptokinase, the “patients showing deterioration in vision” value ([2]; treated group (continuous infusion followed by warfarin), control group 12 of 20) is given as 5 of 20 and the “patients experiencing massive vitreous hemorrhage with persistence of blindness in those eyes” value ([2]; treated group, within 72 hours) is given as 3 of 20.
For COC(=O)[C@H](c1ccccc1Cl)N1CCc2sccc2C1 [Clopidrogel, (+)-(S)-methyl 2-(2-chlorophenyl)-2-(6,7-dihydrothieno[3,2-c]pyridin-5(4H)-yl)acetate], the “incidence of blood disorders compared with ticlodipine” value (no need for regular monitoring) is given as “reduced incidence of blood disorders”.
In the case of Clc1ccccc1CN1CCc2sccc2C1 [Ticlodipine], the “incidence of very serious hematological toxicity, including neutropenia, thrombocytopenia, and aplastic anemia” value (patients, requires regular monitoring) is given as 0.5%-3%.
For C[C@@H]1O[C@@H](OC[C@H]2O[C@@H](Oc3c(-c4ccc(OCCO)c(OCCO)c4)oc4cc(OCCO)cc(O)c4c3=O)[C@H](O)[C@@H](O)[C@@H]2O)[C@H](O)[C@H](O)[C@H]1O [troxerutin], the “macular edema versus placebo” value (retinal vein occlusion) is listed as “improvement”, the “retinal circulation time versus placebo” value (retinal vein occlusion) is listed as “improvement” and the “visual acuity versus placebo” value (retinal vein occlusion) is listed as “improvement”. For the same molecule, the “outcome of CRVO” value (CRVO) was “trend for improvement”.
For “Tissue plasminogen activator (tPA): Tissue plasminogen activator, fibrinolytic therapy”, the fatal stroke (patients with CRVO) is listed as 1 patient and the severe intraocular bleeding (patients with CRVO) is listed as 3 patients.
